Values of other authors, collected in patent US20080175827A1, “PHOSPHOLIPASE C ZETA MEDIATED OOCYTE ACTIVATION, COMPOSITIONS FOR USE THEREIN, AND ASSAYS FOR DETECTING AND IDENTIFYING AGENTS FOR TREATING MALE INFERTILITY” (Michigan State University, priority 2006, published 2008).

What was measured:
IP3R = conditions: mice; Jellerette et al. 2000
bovine eggs = conditions: bovine oocytes; Malcuit and Fissore 2007

[Cl-].[Cl-].[Sr+2] [strontium chloride]
IP3R downregulation (IP3R): does not downregulate IP3R | [Ca2+]i oscillations (bovine eggs): does not induces [Ca^2+]i oscillations
